Consider three molecules from patent publication US20240238304A1, “Small Molecule Degraders of DOT1L and Uses Thereof” (Northwestern University, priority 2022, published 2024).

Structures are written as SMILES.

T1 sequence (Q8TEK3 whole entry): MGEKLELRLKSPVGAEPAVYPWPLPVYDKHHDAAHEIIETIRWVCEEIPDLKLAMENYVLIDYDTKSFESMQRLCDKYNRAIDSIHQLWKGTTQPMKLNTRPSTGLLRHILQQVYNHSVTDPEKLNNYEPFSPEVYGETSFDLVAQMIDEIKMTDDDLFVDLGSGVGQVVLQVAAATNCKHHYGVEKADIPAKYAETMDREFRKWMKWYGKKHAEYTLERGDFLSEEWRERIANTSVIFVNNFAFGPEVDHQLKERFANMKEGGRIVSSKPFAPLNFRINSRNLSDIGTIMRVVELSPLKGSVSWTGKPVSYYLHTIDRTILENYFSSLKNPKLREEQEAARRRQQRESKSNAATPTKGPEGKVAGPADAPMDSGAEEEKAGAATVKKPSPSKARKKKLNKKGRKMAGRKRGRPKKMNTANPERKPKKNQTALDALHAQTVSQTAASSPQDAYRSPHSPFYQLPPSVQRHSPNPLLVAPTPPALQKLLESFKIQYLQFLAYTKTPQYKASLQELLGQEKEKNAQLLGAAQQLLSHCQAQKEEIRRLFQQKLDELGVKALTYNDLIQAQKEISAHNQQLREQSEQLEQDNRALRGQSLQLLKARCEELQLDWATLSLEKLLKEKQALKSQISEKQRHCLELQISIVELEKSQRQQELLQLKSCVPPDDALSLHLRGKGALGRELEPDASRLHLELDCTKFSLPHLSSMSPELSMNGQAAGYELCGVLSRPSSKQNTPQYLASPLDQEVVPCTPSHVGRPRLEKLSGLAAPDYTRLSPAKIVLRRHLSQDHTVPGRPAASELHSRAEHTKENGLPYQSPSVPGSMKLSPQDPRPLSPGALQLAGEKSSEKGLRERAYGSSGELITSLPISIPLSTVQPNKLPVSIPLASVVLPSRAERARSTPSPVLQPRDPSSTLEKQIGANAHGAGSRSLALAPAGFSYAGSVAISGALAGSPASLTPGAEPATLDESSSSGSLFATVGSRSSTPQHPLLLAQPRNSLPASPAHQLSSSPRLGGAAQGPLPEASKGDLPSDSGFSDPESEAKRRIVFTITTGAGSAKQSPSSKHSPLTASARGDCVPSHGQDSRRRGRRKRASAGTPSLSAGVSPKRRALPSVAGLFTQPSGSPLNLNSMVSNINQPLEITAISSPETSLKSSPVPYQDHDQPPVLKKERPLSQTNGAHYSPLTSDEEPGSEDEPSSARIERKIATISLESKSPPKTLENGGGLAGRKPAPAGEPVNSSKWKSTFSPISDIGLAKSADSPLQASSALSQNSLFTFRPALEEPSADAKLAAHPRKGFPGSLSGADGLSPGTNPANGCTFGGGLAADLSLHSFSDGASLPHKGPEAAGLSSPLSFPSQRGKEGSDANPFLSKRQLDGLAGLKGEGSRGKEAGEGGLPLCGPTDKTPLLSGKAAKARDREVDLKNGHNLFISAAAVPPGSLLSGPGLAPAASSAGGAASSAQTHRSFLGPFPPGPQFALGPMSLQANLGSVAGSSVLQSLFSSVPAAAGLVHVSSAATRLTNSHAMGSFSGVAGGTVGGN

One experiment addresses T1, DOT1L (Homo sapiens, UniProt Q8TEK3).
T1 construct: nuclear protein was extracted using NE-PER Nuclear and Cytoplasmic Extraction Reagents; endogenous in cells; host or cells: LNCaP
Briefly: Screening of PROTAC degraders of DOT1L: western blotting of nuclear extract. It is filed as cell-based. The note with it: 1 μM, 48 h (2 days) treatment, LNCaP cell line, Lamin B loading control. As for the experimental part:
LNCaP cells were cultured in complete RPMI1640 media. 70-80% confluent of cells were treated with 1 μM PROTAC degraders of DOT1L (Group A-D), 1 μM parent compound 534, 1 μM EPZ5676, and DMSO (Vehicle) for 48 h. Then, nuclear protein was extracted using NE-PER Nuclear and Cytoplasmic Extraction Reagents (Thermo Scientific 78833) followed by western blotting. Protein band intensity was measured by Image J.
(§1) Nuclear protein extracts were separated by Bolt™ 4-12% Bis-Tris Plus Gels (Invitrogen) and transferred to PVDF membranes by wet transfer. The membranes were blocked with 5% Blotting-Grade Blocker (Bio-Rad) in Tris-buffered saline with 0.5% Tween 20 (TBST) for 1 h at room temperature, and then incubated overnight at 4° C. in blocking buffer with primary antibody including rabbit DOT1L (D1W4Z) mAb1:3000 (CellSignalingTechnology, Cat #77087) and goat lamin B(C-20) pAb 1:1000 (Santa Cruz Biotechnology, Cat #sc-6216). After incubation with HRP-conjugated goat anti-rabbit secondary antibody 1:10,000 (Bio-Rad, Cat #170-6515) or HRP-conjugated donkey anti-goat secondary antibody 1:3000 (Santa Cruz Biotechnology, Cat #sc-2020) for 1 h, the membranes were detected using Super Signal West Femto (Thermo Fisher Scientific, Cat #34096).
(In general: A western blot detects proteins with antibodies after separation by electrophoresis.)
As to `COc1nc(Nc2cc(S(C)(=O)=O)ccc2N[C@@H](c2cccc3c2OC(F)(F)O3)c2ncccc2Cl)nc(N2CCNCC2)n1` [Compound 534], the “DOT1L degradation (western blot, nuclear extraction)” value was “didn't degrade DOT1L protein”.
For the molecule `COc1nc(Nc2cc(S(C)(=O)=O)ccc2N[C@@H](c2cccc3c2OC(F)(F)O3)c2ncccc2Cl)nc(N2CCN(CCOCCNC(=O)COc3cccc4c3C(=O)N(C3CCC(=O)NC3=O)C4=O)CC2)n1` (stereo partly drawn) [Compound 588], the “DOT1L degradation (western blot, nuclear extraction)” value is given as “accelerated the most DOT1L degradation”.
As to `CC(C)N(C[C@H]1O[C@@H](n2cnc3c(N)ncnc32)[C@H](O)[C@@H]1O)[C@H]1C[C@@H](CCc2nc3cc(C(C)(C)C)ccc3[nH]2)C1` [EPZ5676, reference compound], the “DOT1L degradation (western blot, nuclear extraction)” value is reported as “didn't degrade DOT1L protein”.

The target in another experiment is T1, DOT1L. Description: Time-course analysis of DOT1L degradation: western blotting of nuclear extract. Conditions: 1 μM, multiple time points 1 h to 72 h, LNCaP cell line, nuclear extraction. It is filed as cell-based. As for the experimental part:
LNCaP cells were culturedincompleteRPMIl640 media. 70-80% confluent of cells were treated with 1 μM 705 (Group D), 1 μM 588 (Group A), 1 μM 593 (Group C), 1uM 534 (parent), 1 μM EPZ5676, and DMSO for 1 h, 2 h, 6 h, 24 h, 48 h, and 72 h. Then, nuclear protein was extracted using NE-PER Nuclear and Cytoplasmic Extraction Reagents (Thermo Scientific 78833) followed by western blotting. Protein band intensity was measured by Image J.
as §1
Consider `COc1nc(Nc2cc(S(C)(=O)=O)ccc2N[C@@H](c2cccc3c2OC(F)(F)O3)c2ncccc2Cl)nc(N2CCNCC2)n1` [Compound 534], for which the “DOT1L degradation over time (order of degradation)” value (shortened to “DOT1L degradation over time”) is reported as “didn't degrade DOT1L until 72 h”.
As for `COc1nc(Nc2cc(S(C)(=O)=O)ccc2N[C@@H](c2cccc3c2OC(F)(F)O3)c2ncccc2Cl)nc(N2CCN(CCOCCNC(=O)COc3cccc4c3C(=O)N(C3CCC(=O)NC3=O)C4=O)CC2)n1` (stereo partly drawn) [Compound 588], the “DOT1L degradation over time” value is on record as “degraded DOT1L protein in this order”.
As for `CC(C)N(C[C@H]1O[C@@H](n2cnc3c(N)ncnc32)[C@H](O)[C@@H]1O)[C@H]1C[C@@H](CCc2nc3cc(C(C)(C)C)ccc3[nH]2)C1` [EPZ5676, reference compound], the “DOT1L degradation over time” value is on record as “didn't degrade DOT1L until 72 h”.
